# pIC50: −log10 of the molar value.
# Columns and labels:
# [1] = test system: C57BL6 mice; conditions: relative to wortmannin as 1.0; for Lymphocyte toxicity relative to wortmannin: percent decrease in lymphocyte counts at the MTD or highest dose tested; for Liver toxicity relative to wortmannic: mean percent increase in serum ALT and AST at the MTD or highest dose tested
# Excerpt: (§1) Highlighted are the compounds being made for antitumor testing.
# [2] = target: phosphatidylinositol-3-kinase; assay: PI-3 kinase inhibition; assay type: biochemical
# Excerpt: as §1
SMILES,Lymphocyte toxicity relative to wortmannin [1],Liver toxicity relative to wortmannic [1],pIC50 [2]
COC[C@H]1OC(=O)/C(=C/NCC(N)=O)C2=C(O)C(=O)C3=C([C@H](OC(C)=O)C[C@]4(C)C(=O)CC[C@@H]34)[C@]21C [DJM2-190],0.6,–,–
COC[C@H]1OC(=O)/C(=C/SCc2ccccc2)C2=C(O)C(=O)C3=C([C@H](OC(C)=O)C[C@]4(C)C(=O)CC[C@@H]34)[C@]21C [DJM2-170],1.1,1.7,–
COC[C@H]1OC(=O)/C(=C/NC(C)C(=O)O)C2=C(O)C(=O)C3=C([C@H](OC(C)=O)C[C@]4(C)C(=O)CC[C@@H]34)[C@]21C (stereo partly drawn) [DJM2-177],2.0,0.2,–
COC[C@H]1OC(=O)c2coc3c2[C@@]1(C)C1=C(C3=O)[C@@H]2CCC(=O)[C@@]2(C)C[C@H]1OC(C)=O [wortmannin],–,–,9.52

# Source: patent EP1914230B1 (The Arizona Board of Regents on behalf of the University of …, priority 2001, dated 2003)
